≈ marks a conversion by molar mass, not a printed value. Where “and” joins values, the source holds several entries; their conditions need not be identical. Identical values can stand only once.
Assays:
[1] = Solubility of methadone in different solvents; format: physicochemical
Protocol: In this experiment, the solubility of methadone in a number of different solvents was evaluated. The solvents evaluated were mineral oil, N-methyl-2-pyrrolidone, diisopropyl adipate, DEET, PEG, Di (propylene glycol), dehydrated alcohol and water. […] The stability of the solutions was also evaluated.

[2] = Pharmacokinetic study A: topical Methadone-DEET solution, human plasma; details: 10% solution in DEET, one-day application to the skin
[3] = Pharmacokinetic study B: methadone patch, human plasma; format: in vivo; details: topical, Study B: 5 × 5 cm SIS patch (Methadone 10 weight %), 25 mg Methadone free base, applied 12 hours, left leg inner side above knee, 55 kg person, read-out: Concentrations of Methadone in Human Plasma Samples
[4] = Study 1: concentrations of methadone in rat plasma, topical administration versus intravenous injection; format: in vivo
Protocol: The test article was administered intravenously (IV) through the tail vein to animals in Group A. The injection was performed slowly. A gauze pad (1×1 cm) Saturated with 0.2 mL of the appropriate test article was applied to the clipped site on the back of the animals in Groups 2 and 3. The gauze pad was secured by occlusive tape. The animal was wrapped in gauze, which was held in place with Zonas porous tape.
Blood Collection: Blood (0.5 mL) was collected into sodium heparin tubes at the appropriate time points. The samples were centrifuged at approximately 2800 rpm at 2-8 degrees Celsius for approximately 15 minutes. Plasma was collected.

## CCC(=O)C(CC(C)N(C)C)(c1ccccc1)c1ccccc1 (centres unmarked) [Methadone, 6-dimethylamino-4,4-diphenyl-3-hepatone]
[1]; oil or lipid, Mineral oil, 3 hour
  solubility at 3 h: 39.9 mg/mL (≈ 129 mM)
[1]; oil or lipid, Mineral oil, 6 hour
  solubility at 6 h: 37.2 mg/mL (≈ 120 mM)
[1]; oil or lipid, Mineral oil, 24 hour
  solubility at 24 h: 40.4 mg/mL (≈ 131 mM)
[1]; oil or lipid, Mineral oil, 48 hour
  solubility at 48 h: 40.4 mg/mL (≈ 131 mM)
[1]; organic solvent or mixture, thermodynamic from solid, diisopropyl adipate, 3 hour
  solubility at 3 h: 343 mg/mL (≈ 1110 mM)
[1]; organic solvent or mixture, thermodynamic from solid, diisopropyl adipate, 6 hour
  solubility at 6 h: 345 mg/mL (≈ 1110 mM)
[1]; organic solvent or mixture, thermodynamic from solid, diisopropyl adipate, 48 hour
  solubility at 48 h: 324 mg/mL (≈ 1050 mM)
[1]; organic solvent or mixture, DEET (97%), 3 hour
  solubility at 3 h: 124 mg/mL (≈ 401 mM)
[1]; organic solvent or mixture, DEET (97%), 6 hour
  solubility at 6 h: 125 mg/mL (≈ 404 mM)
[1]; organic solvent or mixture, DEET (97%), 24 hour
  solubility at 24 h: 137 mg/mL (≈ 443 mM)
[1]; organic solvent or mixture, DEET (97%), 48 hour
  solubility at 48 h: 132 mg/mL (≈ 427 mM)
[1]; organic solvent or mixture, Dehydrated Alcohol, 3 hour
  solubility at 3 h: 114 mg/mL (≈ 368 mM)
[1]; organic solvent or mixture, Dehydrated Alcohol, 6 hour
  solubility at 6 h: 113 mg/mL (≈ 365 mM)
[1]; organic solvent or mixture, Dehydrated Alcohol, 24 hour
  solubility at 24 h: 115 mg/mL (≈ 372 mM)
[1]; organic solvent or mixture, Dehydrated Alcohol, 48 hour
  solubility at 48 h: 118 mg/mL (≈ 381 mM)
[1]; organic solvent or mixture, Di(propylene glycol), 3 hour
  solubility at 3 h: 56.2 mg/mL (≈ 182 mM)
[1]; organic solvent or mixture, Di(propylene glycol), 6 hour
  solubility at 6 h: 56.5 mg/mL (≈ 183 mM)
[1]; organic solvent or mixture, Di(propylene glycol), 24 hour
  solubility at 24 h: 54.9 mg/mL (≈ 177 mM)
[1]; organic solvent or mixture, Di(propylene glycol), 48 hour
  solubility at 48 h: 58.7 mg/mL (≈ 190 mM)
[1]; organic solvent or mixture, N-methyl-2-pyrrolidone, 3 hour
  solubility at 3 h: 262 mg/mL (≈ 847 mM)
[1]; organic solvent or mixture, N-methyl-2-pyrrolidone, 6 hour
  solubility at 6 h: 270 mg/mL (≈ 873 mM)
[1]; organic solvent or mixture, N-methyl-2-pyrrolidone, 24 hour
  solubility at 24 h: 347 mg/mL (≈ 1120 mM)
[1]; organic solvent or mixture, N-methyl-2-pyrrolidone, 48 hour
  solubility at 48 h: 342 mg/mL (≈ 1110 mM)
[1]; organic solvent or mixture, PEG - 400, 3 hour
  solubility at 3 h: 39.7 mg/mL (≈ 128 mM)
[1]; organic solvent or mixture, PEG - 400, 6 hour
  solubility at 6 h: 39.9 mg/mL (≈ 129 mM)
[1]; organic solvent or mixture, PEG - 400, 24 hour
  solubility at 24 h: 38.8 mg/mL (≈ 125 mM)
[1]; organic solvent or mixture, PEG - 400, 48 hour
  solubility at 48 h: 36.8 mg/mL (≈ 119 mM)
[1]; organic solvent or mixture, diisopropyl adipate, 24 hour
  solubility at 24 h: 360 mg/mL (≈ 1160 mM)
[1]; thermodynamic from solid, water, 3 hour
  solubility at 3 h: 0.217 mg/mL (≈ 0.701 mM)
[1]; thermodynamic from solid, water, 6 hour
  solubility at 6 h: 0.228 mg/mL (≈ 0.737 mM)
[1]; thermodynamic from solid, water, 24 hour
  solubility at 24 h: 0.224 mg/mL (≈ 0.724 mM)
[1]; thermodynamic from solid, water, 48 hour
  solubility at 48 h: 0.225 mg/mL (≈ 0.727 mM)
[2]
  Irritation of human skin by topical methadone composition: lack of irritation
[3]; 12 hr
  concentration at 12 h: 5.36 ng/mL
[3]; 18 hr
  concentration at 18 h: 4.95 ng/mL
[3]; 139.5 hr
  concentration at 139.5 h: 2.24 ng/mL
[4]; Study 1, topical methadone solutions on rat skin over the application time
  Irritation of rat skin by topical application: non-irritating
[4]; Study 1 Group A: I.V. tail vein, 0.25 mL Test Article 1 (0.5 mg/mL Methadone-Saline Solution), 2 min, individual rats A1-A3
  Concentrations of Methadone in Rat Plasma Samples: 67.8 ng/mL and 69.5 ng/mL
[4]; Study 1 Group A: I.V. tail vein, 0.25 mL Test Article 1 (0.5 mg/mL Methadone-Saline Solution), 5 min, individual rats A1-A3
  Concentrations of Methadone in Rat Plasma Samples: 68.9 ng/mL and 56.0 ng/mL
[4]; Study 1 Group A: I.V. tail vein, 0.25 mL Test Article 1 (0.5 mg/mL Methadone-Saline Solution), 10 min, individual rats A1-A3
  Concentrations of Methadone in Rat Plasma Samples: 57.6 ng/mL and 42.3 ng/mL
[4]; Study 1 Group A: I.V. tail vein, 0.25 mL Test Article 1 (0.5 mg/mL Methadone-Saline Solution), 30 min, individual rats A1-A3
  Concentrations of Methadone in Rat Plasma Samples: 30.9 ng/mL and 35.8 ng/mL
[4]; Study 1 Group A: I.V. tail vein, 0.25 mL Test Article 1 (0.5 mg/mL Methadone-Saline Solution), 60 min, individual rats A1-A3
  Concentrations of Methadone in Rat Plasma Samples: 24.5 ng/mL and 22.7 ng/mL
[4]; Study 1 Group B: topical dorsal flank, 1 × 1 cm gauze pad with 0.2 mL Test Article 2 (Methadone-Diisopropyl Adipate Solution 23.9%), 10 min, individual rats B1-B3
  Concentrations of Methadone in Rat Plasma Samples: BQL (below quantification limit (1.00 ng/mL))
[4]; Study 1 Group B: topical dorsal flank, 1 × 1 cm gauze pad with 0.2 mL Test Article 2 (Methadone-Diisopropyl Adipate Solution 23.9%), 20 min, individual rats B1-B3
  Concentrations of Methadone in Rat Plasma Samples: 3.25 ng/mL and 3.18 ng/mL
[4]; Study 1 Group B: topical dorsal flank, 1 × 1 cm gauze pad with 0.2 mL Test Article 2 (Methadone-Diisopropyl Adipate Solution 23.9%), 45 min, individual rats B1-B3
  Concentrations of Methadone in Rat Plasma Samples: 10.4 ng/mL and 7.24 ng/mL
[4]; Study 1 Group B: topical dorsal flank, 1 × 1 cm gauze pad with 0.2 mL Test Article 2 (Methadone-Diisopropyl Adipate Solution 23.9%), 60 min, individual rats B1-B3
  Concentrations of Methadone in Rat Plasma Samples: 15.1 ng/mL and 12.4 ng/mL
[4]; Study 1 Group B: topical dorsal flank, 1 × 1 cm gauze pad with 0.2 mL Test Article 2 (Methadone-Diisopropyl Adipate Solution 23.9%), 120 min, individual rats B1-B3
  Concentrations of Methadone in Rat Plasma Samples: 44.1 ng/mL and 57.8 ng/mL and 26.2 ng/mL
[4]; Study 1 Group C: topical dorsal flank, 1 × 1 cm gauze pad with 0.2 mL Test Article 3 (Methadone-DEET Solution 10%), 10 min, individual rats C1-C3
  Concentrations of Methadone in Rat Plasma Samples: BQL (below quantification limit (1.00 ng/mL))
[4]; Study 1 Group C: topical dorsal flank, 1 × 1 cm gauze pad with 0.2 mL Test Article 3 (Methadone-DEET Solution 10%), 20 min, individual rats C1-C3
  Concentrations of Methadone in Rat Plasma Samples: BQL (below quantification limit (1.00 ng/mL))
[4]; Study 1 Group C: topical dorsal flank, 1 × 1 cm gauze pad with 0.2 mL Test Article 3 (Methadone-DEET Solution 10%), 45 min, individual rats C1-C3
  Concentrations of Methadone in Rat Plasma Samples: 2.66 ng/mL and 2.84 ng/mL
